Assay results reported in US20120121545A1, “Pharmaceutical Composition For Bone Disease Treatment Or Countering Inflammation, Comprising Cartilage Stem Cells As An Active Principle” (CoreStem Co., Ltd., priority 2009, published 2012).

Experiments:
Type in all cases: in vivo, Sprague-Dawley rats
[1] = system: osteoarthritis-induced rats; experiment: Change in maximum knee joint angle, osteoarthritis-induced rats; conditions: diclofenac sodium 2 mg/kg subcutaneously once a day for 84 days; after 84 days
Method: One hundred and twenty (120) 6-week-old male Sprague-Dawley rats (SLC, Japan) were used for test after accommodation for 7 days. All the test animals were kept in a polycarbonate cage, four or five each, and reared in a laboratory with temperature (20-25° C.) and humidity (40-45%) controlled. The light/dark cycle was 12 hours:12 hours, and feed (Samyang Corporation, Korea) and drinking water well provided freely. All the test animals had been fasted for at least 18 hours before sacrificing. They were treated according to “Guide for the Care and Use of Laboratory Animals by Institute of Laboratory Animal Resources, Commission on Life Science, National Research Council, USA on 1996, Washington D.C.”. […]
The administration groups of the drug and cell were sacrificed after 84 days. After taking out the right hind leg from the hip joint and removing nearby skin, connective tissues and muscles, the maximum knee joint angle was measured with the theoretical maximum as 0°. […]
Percent change between the normal control group and the osteoarthritis-induced control group was calculated by Equation 1 in order to evaluate the degree of inducement of osteoarthritis. Also, percent change between the cell administration group and the osteoarthritis-induced control group was calculated by Equation 2 in order to more clearly represent the efficacy of the administered cells. […]

[2] = system: osteoarthritis-induced rats; experiment: Knee cartilage thickness by histomorphometry; conditions: diclofenac sodium 2 mg/kg subcutaneously once a day for 84 days
Method: The articular capsule taken from the knee joint of each control group and test group was fixed for 5 days in 10% neutral-buffered formalin (NBF) and decalcified in decalcifying solution (24.4% formic acid, and 0.5 N sodium hydroxide). The decalcifying solution was replaced once a day for 5 days. After the decalcification, the median joint parts of the articular capsule were cut transversely and embedded in paraffin. […]
Mankin score was measured by comparing damage to the knee joint tissue with that of the normal control group. Cartilage thickness of the tibia and the femur was measured by histomorphometry using an automatic image analyzer (DMI-300, DMI, Korea). […]

[3] = system: osteoarthritis-induced rats; experiment: Growth of chondrocytes in knee cartilage (BrdU labelling); conditions: diclofenac sodium 2 mg/kg subcutaneously once a day for 84 days
Method: (§1) One hundred and twenty (120) 6-week-old male Sprague-Dawley rats (SLC, Japan) were used for test after accommodation for 7 days. All the test animals were kept in a polycarbonate cage, four or five each, and reared in a laboratory with temperature (20-25° C.) and humidity (40-45%) controlled. The light/dark cycle was 12 hours:12 hours, and feed (Samyang Corporation, Korea) and drinking water well provided freely. All the test animals had been fasted for at least 18 hours before sacrificing. They were treated according to “Guide for the Care and Use of Laboratory Animals by Institute of Laboratory Animal Resources, Commission on Life Science, National Research Council, USA on 1996, Washington D.C.”. On day 7 after joint surgery, the rats were grouped into 7 groups as described in Table 4 based on joint thickness and body weight. 8 rats were selected from each group (56 in total) for test.
(§2) The cells were suspended in CSBM at four different concentrations (high concentration: 9.6×10^6 cells/rat, intermediate high concentration: 4.8×10^6 cells/rat, intermediate low concentration: 2.4×10^6 cells/rat, low concentration: 1.2×10^6 cells/rat). […] For the normal group and the osteoarthritis-induced control group, only the CSBM was administered into the articular capsule.
Chondrocytes growing in the articular capsule were labeled with BrdU in order to investigate their growth due to the administration of the cartilage-derived stem cells. Since the cells labeled with BrdU are those grown after the injection of BrdU, the growth of chondrocytes can be analyzed.
5-Bromo-2′-deoxyuridine (50 mg/kg, BrdU, MP Biomedicals, OH, USA) diluted in physiological saline to a concentration of 2 mL/kg was intraabdominally injected once 72 hours before the sacrificing of the rats of the control groups and test groups. Then, immunohistochemical staining was performed using BrdU antibody (Hwang et al., 2000; Moore et al., 2005; Ganey et al., 2003; Ito et al., 1998; Tang et al., 2007).
The expression pattern of BrdU was investigated using the Vector Elite ABC kit (Vector Lab. Inc., CA., USA). After washing the tissue with DPBS, reaction was performed in 3% hydrogen peroxide (H2O2) solution for 30 minutes at room temperature. After washing with DPBS, reaction was performed for 30 minutes using normal horse serum (1:100, Vector Lab. Inc., CA, USA) in order to prevent nonspecific reaction that might occur during the staining. […] The number of cells responding to BrdU antibody by 10% or more was counted. From a total of 100 chondrocytes on the articular surface of the tibia and the femur, the percentage of BrdU-positive cells was measured using an automatic image analyzer. […]

[4] = system: osteoarthritis-induced rats; experiment: Change in knee joint thickness, osteoarthritis-induced rats; conditions: diclofenac sodium 2 mg/kg subcutaneously once a day for 84 days
Method: One hundred and twenty (120) 6-week-old male Sprague-Dawley rats (SLC, Japan) were used for test after accommodation for 7 days. All the test animals were kept in a polycarbonate cage, four or five each, and reared in a laboratory with temperature (20-25° C.) and humidity (40-45%) controlled. The light/dark cycle was 12 hours:12 hours, and feed (Samyang Corporation, Korea) and drinking water well provided freely. All the test animals had been fasted for at least 18 hours before sacrificing. They were treated according to “Guide for the Care and Use of Laboratory Animals by Institute of Laboratory Animal Resources, Commission on Life Science, National Research Council, USA on 1996, Washington D.C.”. On day 7 after joint surgery, the rats were grouped into 7 groups as described in Table 4 based on joint thickness and body weight. 8 rats were selected from each group (56 in total) for test. […] The joint thickness of the rats in the control groups and test groups was measured using calipers. […] Percent change between the normal control group and the osteoarthritis-induced control group was calculated by Equation 1 in order to evaluate the degree of inducement of osteoarthritis. Also, percent change between the cell administration group and the osteoarthritis-induced control group was calculated by Equation 2 in order to more clearly represent the efficacy of the administered cells. […]

[5] = system: osteoarthritis-induced rats; experiment: Histopathological analysis of knee cartilage: Mankin score; conditions: diclofenac sodium 2 mg/kg subcutaneously once a day for 84 days
Method: as §1, §2
For histopathological observation and analysis of the cartilage Mankin score and cartilage thickness were measured (Table 9). Mankin score is frequently used to evaluate arthritis. A higher score is known to be related with higher inducement of osteoarthritis (Armstrong et al., 1994; Rezende et al., 2006).
The articular capsule taken from the knee joint of each control group and test group was fixed for 5 days in 10% neutral-buffered formalin (NBF) and decalcified in decalcifying solution (24.4% formic acid, and 0.5 N sodium hydroxide). The decalcifying solution was replaced once a day for 5 days. After the decalcification, the median joint parts of the articular capsule were cut transversely and embedded in paraffin. After preparing 3-4 μm thick tissue sections, followed by deparaffinization and hydration, the cartilage was observed after hematoxylin & eosin (H&E) staining and safranin O staining (Camplejohn and Allard, 1988; Kahveci et al., 2000; Tran et al., 2000).
Mankin score was measured by comparing damage to the knee joint tissue with that of the normal control group. Cartilage thickness of the tibia and the femur was measured by histomorphometry using an automatic image analyzer (DMI-300, DMI, Korea).
Mankin Score is Given by the Sum.
Percent change (%) between the cell administration group and the osteoarthritis-induced control group=[(Value of the cell administration group−Value of the osteoarthritis-induced control group)/Value of the osteoarthritis-induced control group]×100 Equation 2

O=C(O)Cc1ccccc1Nc1c(Cl)cccc1Cl [Control drug, diclofenac sodium]
Maximum knee joint angle [1]: 60.75 ± 6.78 °
knee joint angle decreased as compared to the normal control group [1]: 18.18%
Knee cartilage thickness, Femur [2]: 409.48 ± 69.80
cartilage thickness of the femur, increase as compared to the osteoarthritis-induced control group [2]: 35.11%
cartilage thickness of the tibia, increase as compared to the osteoarthritis-induced control group [2]: 68.81%
Number of BrdU-positive cells/100 chondrocytes, Femur [3]: 8.63 ± 4.03 /100 chondrocytes
Number of BrdU-positive cells/100 chondrocytes, Tibia [3]: 8.13 ± 3.52 /100 chondrocytes
number of BrdU-positive cells on the articular surface of the femur, increase as compared to the osteoarthritis-induced control group [3]: 9.52%
number of BrdU-positive cells on the articular surface of the tibia, increase as compared to the osteoarthritis-induced control group [3]: 1.56%
reduced knee joint thickness as compared to the osteoarthritis control group [4]: 5.79%
Mankin score of the femur, decrease as compared to the osteoarthritis-induced control group [5]: 27.85%
Mankin score of the femur: Clones [5]: 2.38 ± 0.92
Mankin score of the femur: Hypocellularity [5]: 1.38 ± 0.52
Mankin score of the femur: Safranin O [5]: 1.25 ± 0.46
Mankin score of the femur: Sum (Max = 12) [5]: 7.13 ± 1.36
Mankin score of the femur: Surface [5]: 2.13 ± 0.35
Mankin score of the tibia, decrease as compared to the osteoarthritis-induced control group [5]: 20.59%
Mankin score of the tibia: Clones [5]: 1.75 ± 0.71
Mankin score of the tibia: Hypocellularity [5]: 1.63 ± 0.52
Mankin score of the tibia: Safranin O [5]: 1.38 ± 0.74
Mankin score of the tibia: Sum (Max = 12) [5]: 6.75 ± 1.16
Mankin score of the tibia: Surface [5]: 2.00 ± 0.53
